Patent US4165384A, “Amide substituted phenoxy propanol amines” (priority 1974, dated 1979)
Like-named read-outs stand apart in the source and are kept apart here.

Key:
[1] = molecular target: T1, cardial β-receptors (Felis catus, UniProt Q9TST6); experiment: Block of isoprenaline, heart rate (HR), reserpinized anesthetized cat; type: in vivo; conditions: iv, read-out: Block of isopren ED50 HR
T1 construct: from tissue; host or cells: heart in situ of anesthetized, reserpinized, vagotomized cat (in vivo, heart rate)
T1 sequence (Q9TST6 whole entry): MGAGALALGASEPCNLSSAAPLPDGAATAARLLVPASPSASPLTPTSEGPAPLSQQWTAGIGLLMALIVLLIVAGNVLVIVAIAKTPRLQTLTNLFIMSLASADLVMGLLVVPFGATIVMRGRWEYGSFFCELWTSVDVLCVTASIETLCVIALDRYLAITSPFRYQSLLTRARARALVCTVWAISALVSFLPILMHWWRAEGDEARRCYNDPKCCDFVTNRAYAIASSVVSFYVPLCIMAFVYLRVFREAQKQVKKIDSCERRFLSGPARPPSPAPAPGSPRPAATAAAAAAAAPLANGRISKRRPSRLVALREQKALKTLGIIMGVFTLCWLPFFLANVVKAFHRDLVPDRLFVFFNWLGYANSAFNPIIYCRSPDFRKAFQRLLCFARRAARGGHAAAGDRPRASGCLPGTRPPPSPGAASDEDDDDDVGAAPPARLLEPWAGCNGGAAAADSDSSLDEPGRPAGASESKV
Protocol: (§1) The β-receptor blocking agents of the present invention were tested as regards their biological properties. All compounds were thereby tested in anesthetized cats (males and females weighing 2.5-3.5 kg) pretreated with reserpine (5 mg/kg body weight administered intra musculary) about 16 hours before the experiments. The animals were pretreated with reserpine in order to eliminate the endogenous sympathetic control of heart rate and vascular smooth muscle tone. The cats were anaesthetized with pentobarbital (30 mg/kg body weight administered i.p.) and artifically ventilated with room air. A bilateral vagotomy was performed in the neck. Blood pressure was obtained from a cannulated carotid artery and heart rate was registered from a cardiotachometer, triggered by the electrocardiogram. (ECG) Intrinsic beta-mimetic activity on the heart was seen as increased heart rate after drug administration. The test compounds were given intravenously in logarithmically increasing doses. The values obtained were plotted on dose-response curves, from which affinity values (ED50) were estimated. At the end of each experiment high doses of isoprenaline were given in order to obtain the maximal heart rate response.

[2] = molecular target: T2, vascular β-receptors (Felis catus, UniProt Q9TST5); experiment: Block of isoprenaline, PR (vascular), reserpinized anesthetized cat; type: in vivo; conditions: iv, read-out: Block of isopren ED50 PR
T2 construct: from tissue; host or cells: vascular smooth muscle in situ of anesthetized, reserpinized cat (in vivo, isoprenaline vasodilation)
T2 sequence (Q9TST5 whole entry): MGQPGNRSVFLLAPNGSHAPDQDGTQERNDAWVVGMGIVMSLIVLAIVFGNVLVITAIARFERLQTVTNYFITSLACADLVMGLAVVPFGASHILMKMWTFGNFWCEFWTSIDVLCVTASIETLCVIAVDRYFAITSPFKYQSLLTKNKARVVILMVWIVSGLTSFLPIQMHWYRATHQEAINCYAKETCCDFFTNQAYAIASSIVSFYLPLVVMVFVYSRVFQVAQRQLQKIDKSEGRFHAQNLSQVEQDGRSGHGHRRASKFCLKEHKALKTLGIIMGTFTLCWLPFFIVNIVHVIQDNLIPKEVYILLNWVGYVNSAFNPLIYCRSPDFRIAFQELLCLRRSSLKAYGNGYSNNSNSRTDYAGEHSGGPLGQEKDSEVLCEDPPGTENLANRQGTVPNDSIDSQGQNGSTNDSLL
Protocol: as §1

[3] = system: heart; experiment: Intrinsic β-mimetic activity on the heart (increased heart rate), reserpinized cat; type: in vivo; conditions: i.v.
Protocol: as §1

[4] = Effect on arterial blood pressure in conscious dogs; type: in vivo, Beagle dogs; conditions: conscious dog, after 1.5 mg/kg i.v.; for ΔBP Supino: supine
Protocol: The compounds were also tested on conscious dogs. Beagle dogs were trained to be lying quietly and to be lifted to an erect position by placing their forelegs on a table for 2 minutes. Arterial blood pressure was registered via a blood pressure transducer attached to the dog at the heart level. Heart rate was triggered from the ECG. All dogs were pretreated with methylscopolamine to avoid vagal influences. Recordings were taken before and 15 and 75 min after administration of the test compound, first in supine position for 2 min and then in the erect position for 2 minutes. The test compounds were given in increasing doses with 2 hours intervals.

[5] = reserpinized cat, i.v., heart rate

Row | Structure (SMILES) | ED50 ([2]; reserpinized cat, i.v., PR) [mg/kg] | ED50 [1, 5] [mg/kg] | Intrinsic activity [3] | ΔBP Erect [4] [mm Hg] | ΔBP Supino [4] | ED50 ([1]; cat) [mg/kg] | ED50 ([2]; cat) [mg/kg]
1 | COCCc1ccc(OCC(O)CNCCOc2ccc(C(N)=O)cc2)cc1 (stereo not drawn) [Ex 3, 1-[2-(4-carbamylphenoxy)ethylamino]-3-(2-methoxyethyl)phenoxypropanol-2] | 8.5 | 1.1 | 0 beats/min | – | – | – | –
2 | Cc1ccc(Cl)c(OCC(O)CNCCOc2ccc(C(N)=O)cc2)c1 (stereo not drawn) [Ex 2, 1-[2-(4-carbamylphenoxy)ethylamino]-3-(2-chloro-5-methylphenoxy)propanol-2] | 4.6 | 0.3 | 0 beats/min | – | – | – | –
3 | C=CCc1ccccc1OCC(O)CNC(C)COc1ccc(C(N)=O)cc1 (stereo not drawn) [Ex 5, 1-[1-methyl-2-(4-carbamylphenoxy)ethylamino]-3-(2-allylphenoxy)propanol-2] | 0.2 | 0.05 | +15 beats/min | -42 | -43 mm Hg | – | –
4 | C=CCc1ccccc1OCC(O)CNCCOc1ccc(C(N)=O)cc1 (stereo not drawn) [Ex 1, 1[2-(4-carbamylphenoxy)-ethylamino]-3-(2-allylphenoxy)propanol-2] | 1.8 | 0.3 | 0 beats/min | -45 | -28 mm Hg | – | –
5 | COCCc1ccc(OCC(O)CNC(C)C)cc1 (stereo not drawn) [Metroprolol, 1-isopropylamino-3-[4-(2-methoxyethyl)phenoxy]-propanol-2, reference compound] | – | – | 0 beats/min | -3 | -5 mm Hg | 0.2 | 4.7
6 | CC(C)NCC(O)COc1cccc2ccccc12 (stereo not drawn) [Propranolol, 1-isopropylamino-3-(1-naphtoxy)-propanol-2, reference compound] | – | – | 0 beats/min | 0 | +5 mm Hg | – | –
7 | C=CCc1ccccc1OCC(O)CNC(C)COc1ccccc1C (stereo not drawn) [Ex 6, 1-[1-methyl-2-(2-methylphenoxy)-ethylamino]-3-(2-allylphenoxy)propanol-2] | 0.5 | 0.5 | +24 beats/min | – | – | – | –

The next lines start with results.

Row | ED50 ([2]; reserpinized cat, i.v., PR) [mg/kg] | Structure (SMILES) | ED50 [1, 5] [mg/kg] | Intrinsic activity [3] | ΔBP Erect [4] [mm Hg] | ΔBP Supino [4] | ED50 ([1]; cat) [mg/kg] | ED50 ([2]; cat) [mg/kg]
8 | 0.3 | C#CCOc1ccccc1OCC(O)CNCCOc1ccc(C(N)=O)cc1 (stereo not drawn) [Ex 18] | 0.04 | +13 beats/min | – | – | – | –
9 | 35 | CC(=O)Nc1ccc(OCC(O)CNC(C)C)cc1 (stereo not drawn) [Practolol, 4-(2-hydroxy-3-isopropylaminopropoxy)acetanilide, reference compound] | 0.3 | +15 beats/min | – | – | – | –
10 | < 8.5 | NC(=O)c1ccc(OCCNCC(O)COc2ccccc2OCC(=O)NCCO)cc1 (stereo not drawn) [Ex 20, 1-[2-(4-carbamylphenoxy)ethylamino]-3-[2-(ω-hydroxyethylaminocarbonylmethoxy)phenoxy]-propanol-2] | 0.03 | – | – | – | – | –
11 | 1.5 | C=CCOc1ccccc1OCC(O)CNCCOc1ccc(C(N)=O)cc1 (stereo not drawn) [Ex 17] | 0.1 | +8 beats/min | -46 | -23 mm Hg | – | –
12 | 1 | NC(=O)c1ccc(OCCNCC(O)COc2ccccc2Cl)cc1 (stereo not drawn) [Ex 11, 1-[2-(4-carbamoylphenoxy)ethylamino]-3-(2-chlorophenoxy)propanol-2] | 0.05 | +16 beats/min | -20 | -28 mm Hg | – | –
13 | 2.4 | COC(=O)NCCc1ccc(OCCNCC(O)COc2ccccc2C)cc1 (stereo not drawn) [Ex 9, 1-[4-(2-(2-methoxycarbonylamino)ethyl)phenoxyethylamino]-3-(2-methylphenoxy)-propanol-2] | 0.3 | +40 beats/min | – | – | – | –
14 | < 8.5 | NC(=O)Cc1ccccc1OCC(O)CNCCOc1ccc(C(N)=O)cc1 (stereo not drawn) [Ex 19] | 1.7 | 0 beats/min | – | – | – | –
